Target: T1, human LPAR1 (Homo sapiens, UniProt Q92633)
T1 construct: expressed in transfected cells
Assay: Test Example 1: antagonism against response of LPA-induced increase in intracellular Ca2+ concentration in RH7777 cells stably expressing human LPAR1
Type: cell-based
Conditions: RH7777 cells stably expressing human LPAR1; Fluo-4 fluorescence, FDSS6000; read-out: IC50 value (concentration producing 50% antagonism against response of LPA-induced increase in intracellular Ca2+ concentration) (converted)
Procedure: (1) Preparation of RH7777 cells stably expressing human LPAR1
The human LPAR1 expression vector was transfected into RH7777 cells to acquire human LPAR1 expressing cells.
(2) Test of antagonism against response of LPA-induced increase in intracellular Ca^2+ concentration
Cells stably expressing human LPAR1 were used for a test of antagonism against response of LPA-induced increase in intracellular Ca^2+ concentration.
The cells were seeded onto the Poly-D-Lysine 96 well black plate and incubated overnight. […] 50 μL of the Basal Buffer (1×HBSS, 20 mM HEPES, 2.5 mM Probenecid, 0.05% BSA, 0.25 mg/mL Amaranth, pH 7.4) containing the test compound was added thereto, followed by incubation at 37° C. for 30 minutes. In FDSS6000 (Hamamatsu Photonics K.K.), LPAs were added, and the change in intracellular Ca^2+ concentration was detected using the fluorescence value of a wavelength of 540 nm by an excitation wavelength of 480 nm as an indicator. […] The Rmax under […] without the test compound was used as the control value. The Rmax under Basal Buffer stimulation with no LPAs or test compounds was used as the basal value.
The percentage (%) of increase in intracellular Ca^2+ concentration was calculated by dividing the value obtained by subtracting the basal value from Rmax in the presence of LPAs and each concentration of the test compound by the value obtained by subtracting the basal value from the control value. The concentration of each test compound was plotted on the X axis and the percentage (%) of increase in intracellular Ca^2+ concentration was plotted on the Y axis, and the IC50 value was calculated by nonlinear regression using XLfit.

T1 sequence (Q92633 whole entry): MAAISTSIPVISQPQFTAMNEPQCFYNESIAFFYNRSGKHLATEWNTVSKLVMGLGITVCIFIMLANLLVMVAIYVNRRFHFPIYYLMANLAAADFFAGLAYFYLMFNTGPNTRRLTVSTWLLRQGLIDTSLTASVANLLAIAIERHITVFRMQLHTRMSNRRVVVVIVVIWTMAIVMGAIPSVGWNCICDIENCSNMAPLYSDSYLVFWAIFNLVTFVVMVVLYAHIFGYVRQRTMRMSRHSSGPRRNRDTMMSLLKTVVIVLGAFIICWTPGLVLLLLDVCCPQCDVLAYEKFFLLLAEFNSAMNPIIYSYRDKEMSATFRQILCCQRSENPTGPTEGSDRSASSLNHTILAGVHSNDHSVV

SMILES | IC50
CCOc1cc([C@@H](C)N(CCO[C@@H](C)c2ccccc2)C(=O)N[C@]2(C(=O)O)C[C@@H](OC)C2)cc(OCC)c1C1CC1 [Example 4-128] | 1.08 nM
CCOc1cc([C@@H](C)N(CCCC(F)(F)c2ccccc2)C(=O)NC2(C(=O)O)CC(OC)C2)cc(OCC)c1C1CC1 (some centres unmarked) [Example 4-67] | 1.27 nM
CCOc1cc([C@@H](C)N(CCC(F)(F)Cc2ccccc2)C(=O)NC2CC(C(=O)O)C2)cc(OCC)c1C1CC1 (some centres unmarked) [Example 4-83] | 80.8 nM
CCOc1cc([C@@H](C)N(CCC(F)(F)Cc2ccccc2)C(=O)NC2(C(=O)O)CC(OCC)C2)cc(OCC)c1C(C)=O (some centres unmarked) [Example 4-92] | 7.79 nM
CCOc1cc([C@@H](C)N(C(=O)NC2(C(=O)O)CC(F)(F)C2)C2CC(Cc3ccccc3)C2)cc(OCC)c1C (some centres unmarked) [Example 4-43] | 37.2 nM
CCOc1cc([C@@H](C)N(CCCC(F)(F)c2ccccc2)C(=O)NC2(C(=O)O)CCOCC2)cc(OCC)c1C(C)O (some centres unmarked) [Example 4-76] | 10.7 nM
CCOc1cc([C@@H](C)N(CCO[C@@H](C)c2ccccc2)C(=O)NC2(C(=O)O)CCC2)cc(OCC)c1C(C)=O [Example 4-114] | 2.54 nM
CCOc1cc([C@@H](C)N(CCCCc2ccccc2)C(=O)NC2CCC(C(=O)O)C2)cc(OCC)c1C(C)=O (some centres unmarked) [Example 1-141] | 42.9 nM
CCOc1cc([C@@H](C)N(CCCCc2ccccc2)C(=O)NC2(C(=O)O)CC(N3CCCC3)C2)cc(OCC)c1C (some centres unmarked) [Example 1-108] | 512 nM
CCOc1cc(C(CO)N(CCCCc2ccccc2)C(=O)NC2(C(=O)O)Cc3ccccc3C2)cc(OCC)c1C (centres unmarked) [Example 3-8] | 33.5 nM
CCOc1cc([C@H](C)N(CCCCc2ccccc2)C(=O)NC2(C(=O)O)CC(F)(F)C2)cc(OCC)c1C(C)=O [Example 1-31, 1-({[(1S)-1-(4-Acetyl-3,5-Diethoxyphenyl)Ethyl](4-Phenylbutyl) Carbamoyl}Amino)-3,3-Difluorocyclobutane-1-Carboxylic Acid] | 177 nM
COc1cc([C@@H](C)N(CCCCc2ccccc2)C(=O)NC2(C(=O)O)CC(F)(F)C2)cc(OC)c1C [Example 1-67] | 1.6 nM
CCOc1cc([C@@H](C)N(CCCCc2ccccc2)C(=O)NCCCC(=O)O)cc(OCC)c1C [Example 1-15] | 280 nM
CCOc1cc([C@@H](C)N(CCCC(F)(F)c2ccccc2)C(=O)NC2(C(=O)O)CC(F)(F)C2)cc(OCC)c1C(C)=O [Example 4-56] | 1.33 nM
CCOc1cc([C@@H](C)N(CCCCc2ccccc2)C(=O)NC2CCC(C(=O)O)C2)cc(OCC)c1C(C)=O (some centres unmarked) [Example 1-140] | 65.9 nM
CCOc1cc([C@@H](C)N(CCO[C@@H](C)c2ccccc2)C(=O)N[C@]2(C(=O)O)C[C@@H](OCC)C2)cc(OCC)c1C1CC1 [Example 4-139, cis-1-[([(1R)-1-(4-cyclopropyl-3,5-diethoxyphenyl)ethyl]{2-[(1S)-1-phenylethoxy]ethyl}carbamoyl)amino]-3-ethoxycyclobutane-1-carboxylic acid] | 1.32 nM
CCOc1cc(C(C)N(CCCCc2ccccc2)C(=O)NC2(C(=O)O)CC(F)(F)C2)cc(OCC(F)(F)F)c1C (centres unmarked) [Example 1-63] | 10.9 nM
CCOc1cc(C(C)N(CCCc2cccc(C)c2)C(=O)NC2(C(=O)O)CC(F)(F)C2)cc(OCC)c1C (centres unmarked) [Example 4-13] | 59.8 nM
CCOc1cc([C@@H](C)N(CCCCc2cccc(OC)c2)C(=O)NC2(C(=O)O)CC(F)(F)C2)cc(OCC)c1C [Example 4-18, 1-({[(1R)-1-(3,5-Diethoxy-4-Methylphenyl)Ethyl][4-(3-Methoxyphenyl)Butyl]Carbamoyl}Amino)-3,3-Difluorocyclobutane-1-Carboxylic Acid] | 18.1 nM
CCOc1cc([C@@H](C)N(CCCCc2ccccc2)C(=O)NCC2(C(=O)O)CC2)cc(OCC)c1C(C)=O [Example 1-144] | 28.7 nM
CCOc1cc(C(C)N(CCCCc2ccccc2F)C(=O)NC2(C(=O)O)CC(F)(F)C2)cc(OCC)c1C (centres unmarked) [Example 4-8] | 8.87 nM
CCOc1cc([C@@H](C)N(CCC2Cc3ccccc3C2)C(=O)NC2(C(=O)O)CC(OC)C2)c(C)c(OCC)c1C(C)=O (some centres unmarked) [Example 4-24] | 5.57 nM
CCOc1cc([C@@H](C)N(CCOCc2ccccc2)C(=O)NC2(C(=O)O)CC(F)(F)C2)cc(OCC)c1C(C)O (some centres unmarked) [Example 4-103] | 1.98 nM
CCOc1cc([C@@H](C)N(CCCCc2ccccc2)C(=O)NC2CCC[C@H]2C(=O)O)cc(OCC)c1C(C)=O (some centres unmarked) [Example 1-133] | 1.21 nM

Continued, values first:

IC50 | SMILES
3.36 nM | CCOc1cc(C(C)N(CCCCc2ccccc2)C(=O)NC2(C(=O)O)CC(F)(F)C2)c(Cl)c(OCC)c1C (centres unmarked) [Example 5-84]
4.93 nM | COc1cc(C(C)N(CCOCc2ccccc2)C(=O)NC2(C(=O)O)CCOCC2)c(Cl)c(OC)c1C1CC1 (centres unmarked) [Example 5-175]
3.22 nM | CCOc1cc([C@@H](C)N(CCO[C@@H](C)c2ccccc2)C(=O)NC2(c3nn[nH]n3)CC2)cc(OCC)c1C(C)=O [Example 10-1, N-[(1R)-1-(4-Acetyl-3,5-Diethoxyphenyl)Ethyl]-N-{2-[(1S)-1-Phenylethoxy]Ethyl}-N′-[1-(2H-Tetrazol-5-Yl)Cyclopropyl]Urea]
3.11 nM | COc1cc(C(C)N(CCOCc2ccccc2)C(=O)NC2(C(=O)O)CC(F)(F)C2)c(Cl)c(OC)c1C(C)=O (centres unmarked) [Example 5-143]
1.56 nM | CCOc1cc([C@@H](C)N(CCO[C@@H](C)c2ccccc2)C(=O)N[C@]2(C(=O)O)C[C@@H](OCC)C2)c(Cl)c(OCC)c1C(C)O (single isomer, unassigned) [Example 5-62]
3760 nM | CCOc1cc(OCC)cc(C(C)N(CCCCc2ccccc2)C(=O)NC2(C(=O)OC)CCCC2)c1 (centres unmarked) [Example 6-2, Methyl 1-({[1-(3,5-Diethoxyphenyl)Ethyl](4-Phenylbutyl) Carbamoyl}Amino)Cyclopentane-1-Carboxylate]
1.79 nM | CCOc1cc(C(C)N(CCO[C@@H](C)c2ccccc2)C(=O)NC2(C(=O)O)CC(OCC)C2)c(Cl)c(OCC)c1C1CC1 (some centres unmarked) [Example 5-222]
4.63 nM | CCOc1cc([C@@H](C)N(CCC(F)(F)Cc2ccccc2)C(=O)NC2(C(=O)O)CC(F)(F)C2)c(Cl)c(OCC)c1C(C)=O [Example 5-40]
1.04 nM | CCOc1cc([C@@H](C)N(CCOCc2ccccc2)C(=O)NC2(C(=O)O)CC(F)(F)C2)c(Cl)c(OCC)c1C(C)O (single isomer, unassigned) [Example 5-56]
4 nM | CCOc1cc(C(C)N(CCOCc2ccccc2)C(=O)NC2(C(=O)O)CCOCC2)c(C)c(OCC)c1C(C)=O (centres unmarked) [Example 5-226]
4.33 nM | COc1cc([C@@H](C)N(CCOCc2ccccc2)C(=O)NC2(C(=O)O)CC(OC)C2)c(Cl)c(OC)c1C(C)=O (some centres unmarked) [Example 5-123]
9.3 nM | CCOc1cc(C(C)N(CCCCc2ccccc2)C(=O)NC2(c3nn[nH]n3)CC(F)(F)C2)c(Cl)c(OCC)c1C(C)=O (centres unmarked) [10-8]
55.3 nM | CCOc1cncc(C(C)N(CCCCc2ccccc2)C(=O)NC2(C(=O)O)CC(F)(F)C2)c1 (centres unmarked) [Example 5-89]
2.48 nM | CCOc1cc(C(C)N(CCCCc2ccccc2)C(=O)NC(C)(C)c2nn[nH]n2)cc(OCC)c1C(C)=O (centres unmarked) [Example 10-2]
10200 nM | CCOc1cc(C(C)N(CCO[C@@H](C)c2ccccc2)C(=O)NC2(C(=O)OC(C)(C)C)CC(F)(F)C2)c(Cl)c(OCC)c1C(C)=O (some centres unmarked) [Example 6-17]
2.43 nM | COc1cc(C(C)N(CCOCc2ccccc2)C(=O)NC2(C(=O)O)CC(F)(F)C2)c(C)c(OC)c1C(C)=O (centres unmarked) [Example 5-145]
4520 nM | O=C(NC1(C(=O)O)CCCC1)N(CCCCc1ccccc1)Cc1cccc(Cl)c1 [Example 5-2]

Source: patent US12338203B2 (TAISHO PHARMACEUTICAL CO., LTD., priority 2019, dated 2025)
